Source: ChEMBL document CHEMBL1201862, “PubChem BioAssay data set” (2004)
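Cells were grown in 96-well plates and exposed to each compound for 48 hours at five concentrations; endpoints were interpolated linearly between bracketing concentrations, or set to the highest concentration if not reached. GI50 marks 50% less growth.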 Calls of active or inactive are those of the source. No stated cut-off is given here; in the data, active = GI50 up to about 1.1 µM and inactive = higher.

Experiments:
Test in all cases: NCI anticancer screen, dose series, 48 h
HCC 2998 = test system: HCC 2998
SK-MEL-5 = test system: SK-MEL-5
M14 = test system: M14
SF-539 = test system: SF-539
UO-31 = test system: UO-31
SNB-19 = test system: SNB-19
HOP-62 = test system: HOP-62
A498 = test system: A498
UACC-257 = test system: UACC-257
SK-MEL-2 = test system: SK-MEL-2
K562 = test system: K562
OVCAR-3 = test system: OVCAR-3
UACC-62 = test system: UACC-62
LXFL 529 = test system: LXFL 529
OVCAR-4 = test system: OVCAR-4

Measured: GI50

C=CCn1cc(C(=O)NC(=O)NCCCCCOC(=O)CCCCCCCCCCC(=O)OCCCCCNC(=O)NC(=O)c2cn(CC=C)c(=O)n(C)c2=O)c(=O)n(C)c1=O
inactive: HCC 2998 > 100 µM | SK-MEL-5 > 100 µM | M14 > 100 µM | SF-539 > 100 µM | UO-31 > 100 µM | SNB-19 > 100 µM | HOP-62 > 100 µM | A498 > 100 µM | UACC-257 > 100 µM | SK-MEL-2 > 100 µM | K562 > 100 µM | OVCAR-3 > 100 µM | UACC-62 > 100 µM | LXFL 529 > 100 µM

CN(C)CC1CCCCCCCCCCCCC(CN(C)C)C1=O (configuration not stated)
inactive: HCC 2998 10.2 µM | SK-MEL-5 14.5 µM | M14 13.2 µM | SF-539 15.2 µM | UO-31 13.7 µM | SNB-19 17.5 µM | HOP-62 16.4 µM | A498 18.7 µM | UACC-257 16.3 µM | SK-MEL-2 12.4 µM | OVCAR-3 16.8 µM | UACC-62 13.3 µM | OVCAR-4 15.7 µM | LXFL 529 14.9 µM

COc1cccc([C@@]2(O)c3c(ccc(O)c3OC)[C@H]2OC)c1OC
inactive: HCC 2998 25.7 µM | SK-MEL-5 37.9 µM | M14 30.5 µM | UO-31 36.4 µM | SNB-19 74 µM | HOP-62 60.5 µM | A498 58.1 µM | UACC-257 98.2 µM | SK-MEL-2 37.8 µM | K562 44.5 µM | OVCAR-3 23.9 µM | UACC-62 > 10 µM | OVCAR-4 39.7 µM | LXFL 529 19.6 µM

O=C(N/N=C/c1ccccc1O)c1cccc([N+](=O)[O-])c1
inactive: HCC 2998 30.5 µM | SK-MEL-5 9.98 µM | M14 14.7 µM | SF-539 13.8 µM | UO-31 7.82 µM | SNB-19 > 58.9 µM | A498 76.7 µM | UACC-257 9.48 µM | SK-MEL-2 21.8 µM | K562 22.4 µM | OVCAR-3 1.71 µM | UACC-62 20.7 µM | OVCAR-4 50.5 µM | LXFL 529 40.8 µM

CCCN1C(=O)CNC(=O)c2[nH]cnc21
inactive: HCC 2998 > 100 µM | SK-MEL-5 > 100 µM | M14 > 100 µM | SF-539 > 100 µM | UO-31 > 100 µM | SNB-19 > 100 µM | HOP-62 > 100 µM | A498 > 100 µM | UACC-257 > 100 µM | SK-MEL-2 > 100 µM | K562 > 100 µM | OVCAR-3 > 100 µM | UACC-62 48.3 µM | LXFL 529 > 100 µM

COc1ccc(-c2cc(=O)c3c(O)c(OC)c(O)c(OC)c3o2)cc1OC
inactive: HCC 2998 > 100 µM | SK-MEL-5 > 100 µM | M14 > 100 µM | SF-539 46.2 µM | UO-31 21.5 µM | SNB-19 > 100 µM | HOP-62 44.2 µM | A498 36.4 µM | UACC-257 > 100 µM | K562 45.9 µM | UACC-62 47.4 µM | OVCAR-4 > 100 µM | LXFL 529 61.1 µM

CN1N=C(Nc2ccccc2)Sc2c1cnn(-c1ccccc1)c2=O
inactive: HCC 2998 > 100 µM | M14 > 100 µM | SF-539 > 100 µM | UO-31 83.2 µM | SNB-19 96.4 µM | HOP-62 > 100 µM | A498 > 100 µM | UACC-257 > 100 µM | SK-MEL-2 > 100 µM | K562 30.6 µM | OVCAR-3 28.1 µM | UACC-62 40 µM | OVCAR-4 94.4 µM | LXFL 529 79.8 µM
